This passage reports selectivity ratio, MIC and IC50 results from ChEMBL document CHEMBL3045188, “Synthesis and antibacterial, antimycobacterial and docking studies of novel N-piperazinyl fluoroquinolones” (Med Chem Res, 2013).

Values after ≈ are worked out from the molar mass of the structure shown. Active and inactive are the calls of the source. The calls are words filed in the database; no cut-off is given here. Some results are limits rather than exact numbers.

Series [1] is described as follows: Selectivity index, ratio of IC50 for african green monkey Vero cells to MIC for Mycobacterium tuberculosis H37Rv. It counts as toxicity, cell-based. The settings on record: read-out: Selectivity Index.
Series [2] deals with Escherichia coli. Description: Antibacterial activity against Escherichia coli MTCC 1089 assessed as growth inhibition after 18 hr by broth microdilution method. It counts as functional. The settings on record: MTCC 1089, 18 h. (Broth dilution looks for growth in wells or tubes with falling amounts of substance.)
Series [3] has as its system Pseudomonas aeruginosa. Description: Antibacterial activity against Pseudomonas aeruginosa ATCC 25619 assessed as growth inhibition after 18 hr by broth microdilution method. It counts as functional. The settings on record: ATCC 25619, 18 h.
Series [4] relates to Staphylococcus aureus. Description: Antibacterial activity against Staphylococcus aureus ATCC 25365 assessed as growth inhibition after 18 hr by broth microdilution method. It counts as functional. The settings on record: ATCC 25365, 18 h.
Series [5] has as its system Corynebacterium. Description: Antibacterial activity against Corynebacterium ATCC 29355 assessed as growth inhibition after 18 hr by broth microdilution method. It counts as functional. The settings on record: ATCC 29355, 18 h.
Series [6] deals with Vero. Description: Cytotoxicity against Chlorocebus aethiops (African green monkey) Vero cells assessed as inhibition of cell viability after 96 hr by MTT assay. It counts as cell-based. The settings on record: Chlorocebus sabaeus. Background: Tetrazolium dyes change colour on reduction, which living cells bring about.
Series [7] concerns Mycobacterium tuberculosis. As to the kind of experiment: Antimycobacterial activity against Mycobacterium tuberculosis H37Rv assessed as growth inhibition after 21 days by broth dilution assay. It counts as functional.

In general, MIC refers to the least concentration at which growth counts as inhibited. The IC50 is the concentration needed to halve the response being measured.

As for `CCn1cc(C(=O)O)c(=O)c2cc(F)c(N3CCN(c4nnc(SCC(=O)c5ccc(Cl)cc5)s4)CC3)cc21`, the selectivity ratio in series [1] was 2.67. Besides, the MIC in series [2] was 32 µg/mL (≈ 54.4 µM); in series [3], more than 64 µg/mL; in series [4], 4 µg/mL (≈ 6.8 µM); in series [5], 2 µg/mL (≈ 3.4 µM); in series [7] (504 h) it was 1.5 µg/mL (≈ 2.55 µM). For the same compound, the IC50 in series [6] was found to be 4 µg/mL (≈ 6.8 µM).
Turning to `CCn1cc(C(=O)O)c(=O)c2cc(F)c(N3CCN(c4nnc(SCC(=O)c5ccccc5)s4)CC3)cc21`, the MIC is more than 64 µg/mL in series [2], more than 64 µg/mL in series [3], 32 µg/mL (≈ 57.8 µM) in series [4] and 16 µg/mL (≈ 28.9 µM) in series [5]. Further, in series [7], the MIC result was “inactive”.
As for `CCn1cc(C(=O)O)c(=O)c2cc(F)c(N3CCN(c4nnc(SCC(=O)c5ccc([N+](=O)[O-])cc5)s4)CC3)cc21`, in series [1], the selectivity ratio was more than 10.2. In addition, the MIC in series [2] was 16 µg/mL (≈ 26.7 µM); in series [3], more than 64 µg/mL; in series [4], 2 µg/mL (≈ 3.34 µM); in series [5], 1 µg/mL (≈ 1.67 µM); in series [7] (504 h), 1 µg/mL (≈ 1.67 µM). Also, the IC50 in series [6] was more than 10.2 µg/mL.
On to `NNC(=O)c1ccncc1` [ISONIAZID], for which, in series [6], the IC50 was more than 12 µg/mL. Besides, the MIC in series [7] (504 h) is 1.5 µg/mL (≈ 10.9 µM).
`O=C(CSc1nnc(N2CCN(c3cc4c(cc3F)c(=O)c(C(=O)O)cn4C3CC3)CC2)s1)c1ccc(F)cc1`: the MIC in series [2] is 16 µg/mL (≈ 27.4 µM); in series [3] it was 32 µg/mL (≈ 54.8 µM); in series [4], 8 µg/mL (≈ 13.7 µM); in series [5], 4 µg/mL (≈ 6.85 µM); in series [7] (504 h) it was 5 µg/mL (≈ 8.57 µM).
Consider `O=C(CSc1nnc(N2CCN(c3cc4c(cc3F)c(=O)c(C(=O)O)cn4C3CC3)CC2)s1)c1ccc(Br)cc1`, for which, in series [1], the selectivity ratio is 3. Besides, the MIC in series [2] was 16 µg/mL (≈ 24.8 µM); in series [3], more than 64 µg/mL; in series [4], 8 µg/mL (≈ 12.4 µM); in series [5], 4 µg/mL (≈ 6.21 µM); in series [7] (504 h) it was 2 µg/mL (≈ 3.1 µM). For the same compound, the IC50 in series [6] is 6 µg/mL (≈ 9.31 µM).
Turning to `O=C(CSc1nnc(N2CCN(c3cc4c(cc3F)c(=O)c(C(=O)O)cn4C3CC3)CC2)s1)c1ccc([N+](=O)[O-])cc1`, the selectivity ratio in series [1] is more than 12.2. For the same compound, the minimal inhibitory concentration (MIC) in series [2] is 32 µg/mL (≈ 52.4 µM); in series [3] it was more than 64 µg/mL; in series [4], 1 µg/mL (≈ 1.64 µM); in series [5] it was 0.5 µg/mL (≈ 0.819 µM); in series [7] (504 h), 0.5 µg/mL (≈ 0.819 µM). For the same compound, in series [6], the IC50 was more than 6.1 µg/mL.
Take `CCn1cc(C(=O)O)c(=O)c2cc(F)c(N3CCN(c4nnc(SCC(=O)c5ccc(C)cc5)s4)CC3)cc21`: the MIC in series [2] was more than 64 µg/mL; in series [3], more than 64 µg/mL; in series [4], 8 µg/mL (≈ 14.1 µM); in series [5] it was 4 µg/mL (≈ 7.05 µM). Further, the MIC entry in series [7] was “inactive”.
As for `CO[C@H]1/C=C/O[C@@]2(C)Oc3c(C)c(O)c4c(O)c(c(/C=N/N5CCN(C)CC5)c(O)c4c3C2=O)NC(=O)/C(C)=C\C=C\[C@H](C)[C@H](O)[C@@H](C)[C@@H](O)[C@@H](C)[C@H](OC(C)=O)[C@@H]1C` [RIFAMPIN], the selectivity ratio in series [1] was more than 10. In addition, the IC50 in series [6] is more than 10 µg/mL. The MIC in series [7] (504 h) is 1 µg/mL (≈ 1.22 µM).
Take `CCn1cc(C(=O)O)c(=O)c2cc(F)c(N3CCNCC3)cc21` [NORFLOXACIN]: the MIC stood at 2 µg/mL (≈ 6.26 µM) in series [2], 4 µg/mL (≈ 12.5 µM) in series [3], 2 µg/mL (≈ 6.26 µM) in series [4] and 2 µg/mL (≈ 6.26 µM) in series [5].
With `CCn1cc(C(=O)O)c(=O)c2cc(F)c(N3CCN(c4nnc(SCC(=O)c5ccc(F)cc5)s4)CC3)cc21`, the MIC in series [2] is more than 64 µg/mL; in series [3] it was 32 µg/mL (≈ 56 µM); in series [4], 4 µg/mL (≈ 7 µM); in series [5] it was 2 µg/mL (≈ 3.5 µM); in series [7] (504 h) it was 5 µg/mL (≈ 8.75 µM).
For the compound `Cc1ccc(C(=O)CSc2nnc(N3CCN(c4cc5c(cc4F)c(=O)c(C(=O)O)cn5C4CC4)CC3)s2)cc1`, the MIC is 16 µg/mL (≈ 27.6 µM) in series [2], more than 64 µg/mL in series [3], 8 µg/mL (≈ 13.8 µM) in series [4] and 4 µg/mL (≈ 6.9 µM) in series [5]. Further, in series [7], the MIC entry is “inactive”.
Take `COc1ccc(C(=O)CSc2nnc(N3CCN(c4cc5c(cc4F)c(=O)c(C(=O)O)cn5C4CC4)CC3)s2)cc1`: the minimal inhibitory concentration (MIC) in series [2] was 32 µg/mL (≈ 53.7 µM); in series [3], more than 64 µg/mL; in series [4], 2 µg/mL (≈ 3.36 µM); in series [5], 1 µg/mL (≈ 1.68 µM); in series [7] (504 h) it was 10 µg/mL (≈ 16.8 µM).
Consider `O=C(O)c1cn(C2CC2)c2cc(N3CCNCC3)c(F)cc2c1=O` [CIPROFLOXACIN], for which the values for the minimum inhibitory concentration (MIC) in series [3] and in series [4] were 4 µg/mL (≈ 12.1 µM) and 2 µg/mL (≈ 6.04 µM), respectively.
On to `CCn1cc(C(=O)O)c(=O)c2cc(F)c(N3CCN(c4nnc(SCC(=O)c5ccc(OC)cc5)s4)CC3)cc21`, for which the MIC in series [2] is more than 64 µg/mL; in series [3], more than 64 µg/mL; in series [4], 2 µg/mL (≈ 3.43 µM); in series [5], 1 µg/mL (≈ 1.71 µM); in series [7] (504 h), 10 µg/mL (≈ 17.1 µM).
With `O=C(CSc1nnc(N2CCN(c3cc4c(cc3F)c(=O)c(C(=O)O)cn4C3CC3)CC2)s1)c1ccc(Cl)cc1`, the selectivity ratio in series [1] came to 3. The MIC was 16 µg/mL (≈ 26.7 µM) in series [2]; more than 64 µg/mL in series [3]; 4 µg/mL (≈ 6.67 µM) in series [4]; 2 µg/mL (≈ 3.33 µM) in series [5]; 1 µg/mL (≈ 1.67 µM) in series [7] (504 h). Also, in series [6], the IC50 was found to be 3 µg/mL (≈ 5 µM).
With `CCn1cc(C(=O)O)c(=O)c2cc(F)c(N3CCN(c4nnc(SCC(=O)c5ccc(Br)cc5)s4)CC3)cc21`, in series [1], the selectivity ratio was determined as 2. Besides, the MIC in series [2] is 32 µg/mL (≈ 50.6 µM); in series [3] it was more than 64 µg/mL; in series [4] it was 8 µg/mL (≈ 12.6 µM); in series [5] it was 4 µg/mL (≈ 6.32 µM); in series [7] (504 h) it was 2.5 µg/mL (≈ 3.95 µM). In addition, in series [6], the IC50 turned out to be 5 µg/mL (≈ 7.9 µM).
As to `O=C(CSc1nnc(N2CCN(c3cc4c(cc3F)c(=O)c(C(=O)O)cn4C3CC3)CC2)s1)c1ccccc1`, the MIC in series [2] is 32 µg/mL (≈ 56.6 µM); in series [3], more than 64 µg/mL; in series [4], 16 µg/mL (≈ 28.3 µM); in series [5], 16 µg/mL (≈ 28.3 µM). In addition, the MIC entry in series [7] is “inactive”.
